Results on eleven molecules are retold here after ChEMBL document CHEMBL1201862, “PubChem BioAssay data set” (2004).

Among the test systems are HL-60; SR; NCI-H460; HOP-62; HOP-92; OVCAR-3; LOX IMVI; CAKI-1; UACC-257; SN12C; U-251; NCI-H23; SW-620; NCI-H522; EKVX; SNB-19; M14; SF-295; DU-145; MDA-N.
Experiment in all cases: NCI-60 cell line screen, 48 h

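These data come from cells grown in 96-well plates and exposed to compound for 48 hours at five concentrations. GI50: concentration for 50% inhibition of growth.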 Active and inactive are the calls of the source. Rule as the data show it: active = GI50 up to about 1.1 µM and inactive = higher. Peptide text beside a SMILES is read from it. * marks the point of attachment. Cbz = O=C(OCc1ccccc1)*; NHNH2 = NN*

For the molecule `OCCN(CCO)c1ncnc2c1sc(=S)n2-c1ccccc1`, the GI50 with HL-60, with SR, in the test with NCI-H460, in the test on HOP-62, with HOP-92 and with OVCAR-3 was > 100 µM (inactive) in each case. Further, the GI50 with LOX IMVI, with CAKI-1, with UACC-257, with SN12C, in the test on U-251 and in the test on NCI-H23 was > 100 µM (inactive) in each case. Further, the GI50 in the test with SW-620, with NCI-H522, in the test on EKVX, in the test with SNB-19, in the test on M14 and in the test on SF-295 was > 100 µM (inactive) each time.
With `NCCNc1cccc2ccccc12`, the GI50 in the test with HL-60, in the test with SR, in the test with NCI-H460, in the test with HOP-62, with HOP-92 and with OVCAR-3 was > 100 µM (inactive) in each case. In addition, the GI50 in the test with LOX IMVI, in the test with CAKI-1, in the test with UACC-257, in the test on SN12C, in the test with U-251 and in the test on NCI-H23 was > 100 µM (inactive) each time. Also, the GI50 with SW-620, in the test on NCI-H522, with EKVX, in the test on SNB-19, with M14 and in the test with SF-295 was > 100 µM (inactive) each time.
In the case of `CC(=O)Nc1oc(C)c(C)c1S(=O)(=O)c1ccc(Cl)cc1`, the GI50 in the test with HL-60 was 97.7 µM (inactive); in the test on SR, 51.5 µM (inactive); in the test on NCI-H460 it was 35.7 µM (inactive); in the test with HOP-92, > 100 µM (inactive); in the test on OVCAR-3, 27.5 µM (inactive); with UACC-257 it was 41 µM (inactive). The GI50 with U-251 is 92 µM (inactive); with NCI-H23, 43.3 µM (inactive); in the test on SW-620, > 100 µM (inactive); with NCI-H522 it was 37.7 µM (inactive); in the test on EKVX, 39.4 µM (inactive); in the test with SNB-19, > 100 µM (inactive). Besides, the results for the GI50 in the test with M14, in the test with DU-145 and with SF-295 were 63.8 µM (inactive), 85.3 µM (inactive) and 44.6 µM (inactive), respectively.
Take `CCOC(OCC)C(CCc1ccccc1)c1c(N)nc(N)[nH]c1=O` (configuration not stated): the GI50 is 25.2 µM (inactive) in the test with HL-60; 32.4 µM (inactive) in the test with SR; 56.8 µM (inactive) in the test on NCI-H460; > 100 µM (inactive) in the test with HOP-62; 29.6 µM (inactive) in the test with HOP-92; 62.4 µM (inactive) with OVCAR-3. The GI50 in the test on LOX IMVI was 64.3 µM (inactive); in the test on CAKI-1 it was 34.9 µM (inactive); in the test with UACC-257, > 100 µM (inactive); in the test with SN12C, 56.8 µM (inactive); in the test with U-251, 81.1 µM (inactive); in the test with NCI-H23, 79.8 µM (inactive). The GI50 in the test with SW-620 is 78.7 µM (inactive); in the test on EKVX, 3.76 µM (inactive); in the test on SNB-19 it was > 100 µM (inactive); in the test on M14, 80.5 µM (inactive); in the test on DU-145 it was 83.9 µM (inactive); in the test on SF-295, 53.1 µM (inactive).
Consider `CCN(CC)c1nc(N(C)C)c2ccccc2n1`, for which the GI50 in the test on HL-60 is 41.1 µM (inactive); with SR it was 7.78 µM (inactive); with NCI-H460 it was 25.4 µM (inactive); with HOP-62, 49.3 µM (inactive); with HOP-92, 43.3 µM (inactive); in the test on MDA-N, 16.5 µM (inactive). Further, the GI50 in the test on LOX IMVI is 30.1 µM (inactive); with CAKI-1 it was 58.9 µM (inactive); with UACC-257, 26.7 µM (inactive); in the test on SN12C it was 20.9 µM (inactive); in the test on U-251 it was 28.4 µM (inactive); in the test with NCI-H23, 23.2 µM (inactive). In addition, the GI50 is 32.1 µM (inactive) with SW-620; 18.5 µM (inactive) in the test with NCI-H522; 10.3 µM (inactive) with EKVX; 39.9 µM (inactive) with SNB-19; 15.6 µM (inactive) in the test on M14; 33.1 µM (inactive) in the test with SF-295.
As to `O=C1OCC2OC(=O)c3cc(O)c(O)c(O)c3-c3c(O)c(O)c(O)c4c3C(=O)OC(C2OC(=O)c2cc(O)c(O)c(O)c2-c2c1cc(O)c(O)c2O)C1OC(=O)C2C4=C(O)C(=O)C23Oc2cc(O)c4c(c2[C@H]13)O[C@H](c1ccc(O)c(O)c1)[C@@H](O)C4` (some centres not stated), the GI50 is 18.5 µM (inactive) in the test with HL-60; 27.5 µM (inactive) with SR; 20.5 µM (inactive) in the test on NCI-H460; 41.7 µM (inactive) in the test on HOP-62; 25.9 µM (inactive) in the test with HOP-92; 30.1 µM (inactive) in the test on OVCAR-3. For the same molecule, the GI50 in the test with LOX IMVI is 14.8 µM (inactive); in the test on CAKI-1 it was 16.2 µM (inactive); in the test with UACC-257, 29 µM (inactive); with SN12C it was 18 µM (inactive); with U-251 it was 16.6 µM (inactive); with NCI-H23 it was 19.8 µM (inactive). The GI50 is 20.6 µM (inactive) with SW-620; 17.4 µM (inactive) in the test on NCI-H522; 12.7 µM (inactive) in the test on EKVX; 41.4 µM (inactive) in the test with SNB-19; 12.6 µM (inactive) in the test on M14; 30.9 µM (inactive) in the test on DU-145. Further, in the test on SF-295, the GI50 was 19.8 µM (inactive).
Consider `C[C@H](CCCOS(C)(=O)=O)[C@H]1CC[C@H]2[C@@H]3CC[C@@H]4C[C@H](OS(C)(=O)=O)CC[C@]4(C)[C@H]3CC[C@]12C`, for which the GI50 was 19.2 µM (inactive) in the test on SR; 30.5 µM (inactive) in the test on NCI-H460; 22.5 µM (inactive) in the test with HOP-62; 0.118 µM (active) in the test on HOP-92; 21.4 µM (inactive) in the test on OVCAR-3; 31.7 µM (inactive) in the test on LOX IMVI. In addition, the GI50 was 11.6 µM (inactive) in the test with CAKI-1; 46.7 µM (inactive) with UACC-257; 16.7 µM (inactive) in the test on SN12C; 15.9 µM (inactive) in the test with U-251; 16.6 µM (inactive) in the test with NCI-H23; 56 µM (inactive) in the test on SW-620. For the same molecule, the GI50 in the test on NCI-H522 was 29.7 µM (inactive); in the test with EKVX it was 28.2 µM (inactive); with SNB-19 it was 27.5 µM (inactive); in the test with M14, 90.4 µM (inactive); with DU-145 it was 27 µM (inactive); in the test with SF-295, 37.5 µM (inactive).
Take `N#Cc1ccc(Nc2cnc3cc(N)ccc3n2)cc1`: the GI50 is 14.9 µM (inactive) in the test with HL-60; 44.4 µM (inactive) in the test with SR; 58.1 µM (inactive) with NCI-H460; > 100 µM (inactive) with HOP-62; 54.5 µM (inactive) in the test with HOP-92; 95.9 µM (inactive) with OVCAR-3. For the same molecule, the GI50 in the test on LOX IMVI was 75.2 µM (inactive); in the test on CAKI-1 it was 66.5 µM (inactive); in the test on UACC-257 it was > 100 µM (inactive); with SN12C, 89.1 µM (inactive); in the test on U-251, > 100 µM (inactive); with NCI-H23, > 100 µM (inactive). The GI50 in the test with SW-620 was > 100 µM (inactive); in the test on NCI-H522 it was 48.2 µM (inactive); in the test on EKVX, 98.2 µM (inactive); in the test with SNB-19 it was 71.4 µM (inactive); in the test with M14, > 100 µM (inactive); in the test on SF-295, > 100 µM (inactive).
On to `COC(=O)CC(NC(=O)OCc1ccccc1)C(=O)NC(CC(=O)OC)C(=O)NC(CC(=O)OC)C(=O)NC(CC(=O)OC)C(=O)NC(CC(=O)OC)C(=O)NC(CC(=O)OC)C(=O)NN` (configuration not stated) (Cbz-D(OMe)D(OMe)D(OMe)D(OMe)D(OMe)D(OMe)-NHNH2; configuration not given here), for which the GI50 in the test with HL-60, with SR, with NCI-H460, with HOP-62, with HOP-92 and with MDA-N was > 100 µM (inactive) throughout. The GI50 in the test with LOX IMVI, in the test on UACC-257, in the test on SN12C, in the test with U-251, with SW-620 and in the test on SNB-19 was > 100 µM (inactive) in each case. In addition, the GI50 in the test on M14 and with SF-295 was > 100 µM (inactive) each time.
Regarding `N=C(NNS(=O)(=O)c1ccccc1)Oc1ccc(Br)cc1Br`, the GI50 with HL-60 was 92.7 µM (inactive); with SR, > 100 µM (inactive); in the test with NCI-H460, > 100 µM (inactive); with HOP-62, > 100 µM (inactive); with HOP-92, 44.8 µM (inactive); in the test on OVCAR-3, > 100 µM (inactive). Further, the GI50 in the test with LOX IMVI was > 100 µM (inactive); with CAKI-1, > 100 µM (inactive); in the test with UACC-257 it was > 100 µM (inactive); with SN12C it was > 100 µM (inactive); with U-251, > 100 µM (inactive); in the test with NCI-H23, 84.7 µM (inactive). In addition, the GI50 in the test on SW-620 was 11.9 µM (inactive); with NCI-H522, 67 µM (inactive); with EKVX it was > 100 µM (inactive); with SNB-19 it was > 100 µM (inactive); in the test on M14, > 100 µM (inactive); with SF-295, > 100 µM (inactive).
For `C/C(=N\NC(=N)N)C(CN1CCOCC1)C(c1ccccc1)c1c(O)c2ccccc2oc1=O` (configuration not stated), the GI50 in the test on HL-60 is 49.1 µM (inactive); with SR, 80 µM (inactive); in the test on NCI-H460 it was > 100 µM (inactive); in the test with HOP-62, > 100 µM (inactive); in the test on HOP-92, 25.7 µM (inactive); in the test on OVCAR-3, > 100 µM (inactive). The GI50 in the test with LOX IMVI was > 100 µM (inactive); with CAKI-1 it was > 100 µM (inactive); with UACC-257, > 100 µM (inactive); in the test with SN12C, > 100 µM (inactive); in the test on U-251 it was > 100 µM (inactive); in the test with NCI-H23, 76.7 µM (inactive). In addition, the GI50 in the test with SW-620, with NCI-H522, in the test with EKVX, in the test on SNB-19, in the test with M14 and in the test with SF-295 was > 100 µM (inactive) in each case.
